Consider 19 compounds from US8912190B2, “Substituted heterocyclic compounds” (Gilead Sciences, Inc., priority 2008, dated 2014).

The target of data set [1] is T1, wild-type human cardiac sodium channel, hNav1.5 (Homo sapiens, UniProt Q14524).
T1 construct: host or cells: HEK293
The experiment in a line: Late INa screening assay (PatchXpress whole cell patch clamp). The data set is classed as cell-based. As to conditions: HEK293 hNav1.5; for inhibition at 10 µM: compound at 10 uM, late INa generated with Tefluthrin or ATX II, read-out: Late INa 10 uM (percent block of late INa); for Late INa 1 uM (percent block of late INa): compound at 1 uM. As to the method:
The late sodium current (Late INa) and peak sodium current (Peak INa) assays were performed on an automated electrophysiology platform, PatchXpress 7000A (MDS Analytical Technologies, Sunnyvale, Calif.), using the whole cell patch clamp technique to measure currents through the cell membrane of up to 16 cells at a time. The assay used an HEK293 (human embryonic kidney) cell line heterologously expressing the wild-type human cardiac sodium channel, hNav1.5, purchased from Millipore (Billerica, Mass.). No beta subunits were coexpressed with the Na channel alpha subunit. Cells were maintained with standard tissue culture procedures, and stable channel expression was maintained with 400 μg/ml Geneticin in the culture medium. Cells isolated for use on PatchXpress were incubated for 5 minutes in Versene 1× and then for 2 minutes in 0.0125% Trypsin-EDTA (both at 37° C.) to ensure that 80-90% of the cells are single and not part of a cell cluster. Experiments were carried out at 24-27° C.
For both the Late INa and Peak INa assays, series resistance compensation was set to 50% and whole-cell compensation was performed automatically. Currents were low-pass filtered at 10 kHz and digitized at 31.25 kHz. Currents through open sodium channels were automatically recorded and stored in the DataXpress2 database (MDS Analytical Technologies, Sunnyvale, Calif.). Analysis was performed using DataXpress2 analysis software and data are compiled in Excel.
Compound stocks were routinely made in glass vials to 10 mM in dimethyl sulfoxide (DMSO). In some cases, when compounds were not soluble in DMSO, they are made in 100% ethanol. Stocks were sonicated as necessary. The extracellular solution for screening Late INa was composed of: 140 mM NaCl, 4 mM KCl, 1.8 mM CaCl2, 0.75 mM MgCl2, and 5 mM HEPES with pH adjusted to 7.4 using NaOH. The extracellular solution for screening Peak INa was composed of: 20 mM NaCl, 120 mM N-methyl-D glucamine, 4 mM KCl, 1.8 mM CaCl2, 0.75 mM MgCl2, and 5 mM HEPES with pH adjusted to 7.4 using HCl. The intracellular solution used to perfuse the inside of the cells for both the Late INa and Peak INa assays contained: 120 mM CsF, 20 mM CsCl, 5 mM EGTA, 5 mM HEPES and pH adjusted to 7.4 with CsOH. Compounds were diluted in extracellular solution to […] in glass vials and then transferred to glass well plates before robotic addition to the cells. The 0Na extracellular solution used at the end of each experiment for the Late INa and Peak INa assays to measure baseline current contained: 140 mM N-methyl-D-glucamine; 4 mM KCl; 1.8 mM CaCl2; 0.75 mM MgCl2; 5 mM HEPES and pH was adjusted to 7.4 with HCl.
For the Late INa assay, sodium channels were activated every 10 seconds (0.1 Hz) by depolarizing the cell membrane to −20 mV for 250 milliseconds (ms) from a holding potential of −120 mV. In response to a −20 mV voltage step, typical Nav1.5 sodium currents activated rapidly to a peak negative current and then inactivated nearly completely within 3-4 ms.
All compounds were tested to determine their activity in blocking the late sodium current. Late INa current was generated by adding 10 μM Tefluthrin (pyrethroid) to the extracellular solution while recording Na currents. For some experiments, 50 nM ATX II (sea anemone toxin), another late INa activator, was used to generate the late component. Both activators generated late components that are large, and thus block of the late component by compounds could be measured easily. For the purposes of the screening, late INa is defined as the mean current between 225 ms and 250 ms after stepping to −20 mV to activate Na channels. After establishing the whole cell recording configuration, late INa activators were added to each well 4 times over a 16-17 minute period so that the late component of the Na current reached a stable value. Compounds were then added (typically at 10 μM), in the presence of late INa activator, with 3 additions over the course of 7 or 8 minutes. […]

For a further data set, the target named is T2, hERG potassium channel (Homo sapiens, UniProt Q12809).
T2 construct: expressed in transfected cells; host or cells: CHO (Chinese Hamster Ovary)
T2 sequence (Q12809 whole entry): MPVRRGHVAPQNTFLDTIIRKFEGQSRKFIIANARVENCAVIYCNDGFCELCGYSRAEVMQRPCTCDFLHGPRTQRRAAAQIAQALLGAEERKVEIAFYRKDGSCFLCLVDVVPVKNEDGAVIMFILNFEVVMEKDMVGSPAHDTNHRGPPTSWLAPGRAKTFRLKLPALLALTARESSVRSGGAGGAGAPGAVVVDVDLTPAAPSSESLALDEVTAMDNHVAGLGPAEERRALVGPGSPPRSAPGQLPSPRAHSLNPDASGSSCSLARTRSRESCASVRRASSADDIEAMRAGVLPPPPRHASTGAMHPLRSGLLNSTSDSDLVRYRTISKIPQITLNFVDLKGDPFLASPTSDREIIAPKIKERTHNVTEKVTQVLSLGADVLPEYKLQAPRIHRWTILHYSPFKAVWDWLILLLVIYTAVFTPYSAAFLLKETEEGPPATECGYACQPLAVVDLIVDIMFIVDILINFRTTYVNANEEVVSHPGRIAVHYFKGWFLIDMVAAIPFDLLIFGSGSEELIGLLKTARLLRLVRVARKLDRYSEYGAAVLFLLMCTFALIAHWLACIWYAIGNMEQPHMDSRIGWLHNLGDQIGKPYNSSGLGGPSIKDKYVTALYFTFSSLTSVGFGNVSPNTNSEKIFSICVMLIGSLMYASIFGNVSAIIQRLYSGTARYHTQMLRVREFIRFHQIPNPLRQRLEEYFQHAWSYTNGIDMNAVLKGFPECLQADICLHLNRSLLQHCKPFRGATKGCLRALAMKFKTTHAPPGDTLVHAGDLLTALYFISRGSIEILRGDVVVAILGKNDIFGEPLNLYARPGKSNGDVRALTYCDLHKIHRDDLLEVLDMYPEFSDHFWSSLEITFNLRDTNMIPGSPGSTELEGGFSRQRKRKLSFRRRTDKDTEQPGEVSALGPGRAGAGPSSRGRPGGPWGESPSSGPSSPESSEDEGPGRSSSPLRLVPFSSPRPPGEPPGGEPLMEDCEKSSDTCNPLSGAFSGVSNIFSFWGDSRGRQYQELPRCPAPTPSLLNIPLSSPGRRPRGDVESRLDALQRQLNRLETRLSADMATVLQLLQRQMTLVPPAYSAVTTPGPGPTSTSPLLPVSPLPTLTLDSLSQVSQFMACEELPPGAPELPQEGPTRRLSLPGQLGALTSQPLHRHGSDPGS
Briefly: hERG screening assay (PatchXpress patch clamp, CHO cells). As to conditions: CHO cells expressing hERG; for HERG 1 uM (block of hERG current): compound at 1 uM; for HERG 10 uM (block of hERG current): compound at 10 uM. The data set is classed as cell-based. Here is the method: Compounds were screened to test their activity in blocking the hERG potassium channel. The hERG channel is heterologously expressed in a CHO (Chinese Hamster Ovary) cell line. Cells were maintained with standard tissue culture procedures and stable channel expression was maintained with 500 μg/ml G418 in the culture medium. Cells were harvested for testing on the PatchXpress automated patch clamp with Accumax (Innovative Cell Technologies, San Diego, Calif.) to isolate single cells.
The following solutions were used for electrophysiological recordings. The external solution contained: 2 mM CaCl2; 2 mM MgCl2; 4 mM KCl; 150 mM NaCl; 10 mM Glucose; 10 mM HEPES (pH 7.4 with 1M NaOH, osmolarity). The internal solution contained: 140 mM KCl, 10 mM MgCl2, 6 mM EGTA, 5 mM HEPES, 5 mM ATP (pH adjusted to 7.25 with KOH).
hERG channels were activated when the voltage was stepped to +20 mV from the −80 mV holding potential. During a 5 second step at +20 mV, the channels activated and then largely inactivated, so the currents were relatively small. Upon returning to −50 mV from +20 mV, hERG currents transiently became much larger as inactivation was rapidly removed and then the channel closed. The first step to −50 mV for 300 ms was used as a baseline for measuring the peak amplitude during the step to −50 mV after channel activation. The peak current at −50 mV was measured both under control conditions and after addition of compound.
All compounds were prepared as 10 mM DMSO stocks in glass vials. Stock solutions were mixed by vigorous vortexing and sonication for about 2 minutes at room temperature. For testing, compounds were diluted in glass vials using an intermediate dilution step in pure DMSO and then further diluted to working concentrations in external solution. Dilutions were prepared no longer than 20 minutes before use.
After achieving the whole-cell configuration, cells were monitored for 90 seconds to assess stability and washed with external solution for 66 seconds. The voltage protocol described above was then applied to the cells every 12 seconds and throughout the whole procedure. Only cells with stable recording parameters and meeting specified health criteria were allowed to enter the compound addition procedure.
External solution containing 0.1% DMSO (vehicle) was applied to the cells first to establish the control peak current amplitude. After allowing the current to stabilize for […], 1 μM and then 10 μM test compounds were applied. Each compound concentration was added 4 times and cells were kept in test solution until the effect of the compound reached steady state or for a maximum of 12 minutes. After addition of test compound, a positive control (1 μM Cisapride) was added, and must block >95% of the current for the experiment to be considered valid. Washout in the external solution compartment was performed until the recovery of the current reached steady state. Data was analyzed using DataXpress, Clampfit (Molecular Devices, Inc., Sunnyvale) and Origin 7 (Originlab Corp.)
A general note: hERG is a cardiac potassium channel; its block is linked to QT prolongation.

T1 sequence (Q14524 whole entry): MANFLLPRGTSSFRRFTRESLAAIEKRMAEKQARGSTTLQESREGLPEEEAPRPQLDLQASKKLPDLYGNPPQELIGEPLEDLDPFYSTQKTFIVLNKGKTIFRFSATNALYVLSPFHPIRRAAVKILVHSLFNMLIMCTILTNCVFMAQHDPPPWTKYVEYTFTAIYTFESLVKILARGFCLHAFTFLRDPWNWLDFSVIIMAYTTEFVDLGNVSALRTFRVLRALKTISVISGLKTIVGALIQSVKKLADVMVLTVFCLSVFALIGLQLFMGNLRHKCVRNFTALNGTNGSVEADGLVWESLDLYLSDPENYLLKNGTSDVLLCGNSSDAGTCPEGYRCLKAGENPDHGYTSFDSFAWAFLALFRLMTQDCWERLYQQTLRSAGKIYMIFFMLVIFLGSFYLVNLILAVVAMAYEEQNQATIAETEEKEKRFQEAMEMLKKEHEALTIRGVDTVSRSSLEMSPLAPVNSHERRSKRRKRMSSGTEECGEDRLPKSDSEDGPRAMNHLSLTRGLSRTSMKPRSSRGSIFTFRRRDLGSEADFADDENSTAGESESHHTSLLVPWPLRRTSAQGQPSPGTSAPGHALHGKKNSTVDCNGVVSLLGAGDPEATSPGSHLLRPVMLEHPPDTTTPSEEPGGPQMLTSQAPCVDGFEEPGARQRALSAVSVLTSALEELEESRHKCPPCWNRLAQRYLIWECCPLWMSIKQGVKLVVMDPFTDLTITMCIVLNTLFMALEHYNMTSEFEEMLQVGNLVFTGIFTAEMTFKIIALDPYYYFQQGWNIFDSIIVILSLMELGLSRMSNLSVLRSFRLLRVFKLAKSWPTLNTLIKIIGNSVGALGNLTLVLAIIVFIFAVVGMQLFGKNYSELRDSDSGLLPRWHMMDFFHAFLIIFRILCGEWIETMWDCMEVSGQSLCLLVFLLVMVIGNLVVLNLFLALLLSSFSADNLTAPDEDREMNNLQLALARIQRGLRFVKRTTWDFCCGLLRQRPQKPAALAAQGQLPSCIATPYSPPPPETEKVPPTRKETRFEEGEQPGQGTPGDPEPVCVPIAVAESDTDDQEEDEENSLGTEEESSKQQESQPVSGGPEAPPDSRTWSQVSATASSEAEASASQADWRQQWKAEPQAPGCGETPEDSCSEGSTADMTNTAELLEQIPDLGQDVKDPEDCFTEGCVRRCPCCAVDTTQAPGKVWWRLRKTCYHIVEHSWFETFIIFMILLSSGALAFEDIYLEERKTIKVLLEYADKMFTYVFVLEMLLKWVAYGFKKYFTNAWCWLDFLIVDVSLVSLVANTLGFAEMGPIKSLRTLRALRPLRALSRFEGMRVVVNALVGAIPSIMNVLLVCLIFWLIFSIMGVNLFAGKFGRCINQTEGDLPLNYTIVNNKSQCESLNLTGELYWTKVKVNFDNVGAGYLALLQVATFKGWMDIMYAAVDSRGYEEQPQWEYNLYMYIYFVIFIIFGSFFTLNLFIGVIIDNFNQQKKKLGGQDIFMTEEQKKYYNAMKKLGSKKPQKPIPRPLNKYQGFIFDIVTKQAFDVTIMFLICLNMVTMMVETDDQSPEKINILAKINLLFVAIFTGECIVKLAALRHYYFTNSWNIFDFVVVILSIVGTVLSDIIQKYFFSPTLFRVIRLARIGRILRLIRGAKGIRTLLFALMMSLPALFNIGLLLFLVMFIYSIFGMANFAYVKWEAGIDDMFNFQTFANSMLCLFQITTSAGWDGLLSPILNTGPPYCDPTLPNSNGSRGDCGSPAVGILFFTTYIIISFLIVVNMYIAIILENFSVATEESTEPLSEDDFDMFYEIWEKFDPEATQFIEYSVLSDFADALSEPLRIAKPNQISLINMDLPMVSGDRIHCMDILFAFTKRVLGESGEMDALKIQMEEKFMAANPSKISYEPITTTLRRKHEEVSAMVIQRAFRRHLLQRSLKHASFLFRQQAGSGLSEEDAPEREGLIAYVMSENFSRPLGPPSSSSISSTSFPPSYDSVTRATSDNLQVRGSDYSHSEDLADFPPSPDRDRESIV

Turning to `Cc1nc2cc(-c3cccc(OC(F)(F)F)c3)ccc2n(C)c1=O` [1,3-dimethyl-6-[3-(trifluoromethoxy)phenyl] quinoxalin-2(1H)-one], the inhibition at 10 µM in data set [1] came to 70.9%. In addition, at hERG potassium channel, the “HERG 1 uM (block of hERG current)” value was determined as 19.5% and the “HERG 10 uM (block of hERG current)” value came to 71.5%.

Consider `Cc1nc2cc(-c3ccc(OC(F)(F)F)cc3)ccc2n(C)c1=O` [1,3-dimethyl-6-[4-(trifluoromethoxy)phenyl] quinoxalin-2(1H)-one], for which, in data set [1], the inhibition at 10 µM was determined as 33.7%.

Take `Cc1nc2ccc(-c3cccc(C(F)(F)F)c3)cc2n(C)c1=O` [1,3-dimethyl-7-[3-(trifluoromethyl)phenyl] quinoxalin-2(1H)-one]: the inhibition at 10 µM in data set [1] stood at 45.5%.

With `Cc1nc2ccc(-c3ccc(OC(F)(F)F)cc3)cc2n(C)c1=O` [1,3-dimethyl-7-[4-(trifluoromethoxy)phenyl] quinoxalin-2(1H)-one], in data set [1], the “Late INa 1 uM (percent block of late INa)” value stood at 31.0% and the inhibition at 10 µM amounted to 61.7%.

Regarding `Cc1nc2ccc(-c3ccc(C(F)(F)F)cc3)cc2n(C)c1=O` [1,3-dimethyl-7-[4-(trifluoromethyl)phenyl] quinoxalin-2(1H)-one], the inhibition at 10 µM in data set [1] turned out to be 58.3%. In addition, on hERG potassium channel, the “HERG 1 uM (block of hERG current)” value is 25.0% and the “HERG 10 uM (block of hERG current)” value was 69.5%.

`CC(C)c1nc2ccc(-c3cccc(OC(F)(F)F)c3)cc2n(C)c1=O` [1-methyl-3-(propan-2-yl)-7-[3-(trifluoromethoxy)phenyl] quinoxalin-2(1H)-one]: the inhibition at 10 µM in data set [1] is 49.9%.

On to `CC(C)c1nc2ccc(-c3ccc(OC(F)(F)F)cc3)cc2n(C)c1=O` [1-methyl-3-(propan-2-yl)-7-[4-(trifluoromethoxy)phenyl] quinoxalin-2(1H)-one], for which, in data set [1], the “Late INa 1 uM (percent block of late INa)” value was 31.3% and the inhibition at 10 µM worked out at 60.3%. Also, at hERG potassium channel, the “HERG 1 uM (block of hERG current)” value came out at 10.0% and the “HERG 10 uM (block of hERG current)” value was found to be 10.0%.

Take `Cn1c(=O)c(C(F)(F)F)nc2cc(-c3cccc(C(F)(F)F)c3)ccc21` [1-methyl-3-(trifluoromethyl)-6-[3-(trifluoromethyl)phenyl] quinoxalin-2(1H)-one]: the inhibition at 10 µM in data set [1] came to 24%.

With `Cn1c(=O)c(C(F)(F)F)nc2cc(-c3cccc(OC(F)(F)F)c3)ccc21` [1-methyl-6-[3-(trifluoromethoxy)phenyl]-3-(trifluoromethyl)quinoxalin-2(1H)-one], in data set [1], the inhibition at 10 µM was determined as 31.6%.

Take `Cn1c(=O)c(C(F)(F)F)nc2cc(-c3ccc(OC(F)(F)F)cc3)ccc21` [1-methyl-6-[4-(trifluoromethoxy)phenyl]-3-(trifluoromethyl)quinoxalin-2(1H)-one]: the inhibition at 10 µM in data set [1] was 39.9%. Further, at hERG potassium channel, the “HERG 1 uM (block of hERG current)” value was 10.0% and the “HERG 10 uM (block of hERG current)” value is reported as 47.5%.

Regarding `Cn1c(=O)cnc2ccc(-c3ccc(OC(F)(F)F)cc3)cc21` [1-methyl-7-[4-(trifluoromethoxy)phenyl] quinoxalin-2(1H)-one], in data set [1], the inhibition at 10 µM turned out to be 51.6%. Further, at hERG potassium channel, the “HERG 1 uM (block of hERG current)” value is reported as 10.00% and the “HERG 10 uM (block of hERG current)” value stood at 41.5%.

With `Cn1c(=O)c(C(F)(F)F)nc2ccc(-c3ccc(OC(F)(F)F)cc3)cc21` [1-methyl-7-[4-(trifluoromethoxy)phenyl]-3-(trifluoromethyl)quinoxalin-2(1H)-one], in data set [1], the inhibition at 10 µM was found to be 38.7%. On hERG potassium channel, the “HERG 1 uM (block of hERG current)” value is listed as 10.00% and the “HERG 10 uM (block of hERG current)” value was 39.0%.

Regarding `O=C(CO)NCCn1c(=O)c(C(F)(F)F)nc2ccc(-c3ccc(OC(F)(F)F)cc3)cc21` [2-hydroxy-N-(2-{2-oxo-7-[4-(trifiuoromethoxy)phenyl]-3-(trifluoromethyl)quinoxalin-1(2H)-yl}ethyl)acetamide], the inhibition at 10 µM in data set [1] amounted to 19%.

Consider `Cn1c(=O)c(C(C)(C)O)nc2ccc(-c3ccc(OC(F)(F)F)cc3)cc21` [3-(2-hydroxypropan-2-yl)-1-methyl-7-[4-(trifluoromethoxy)phenyl] quinoxalin-2(1H)-one], for which the inhibition at 10 µM in data set [1] was 54%. At hERG potassium channel, the “HERG 1 uM (block of hERG current)” value was determined as 19.5% and the “HERG 10 uM (block of hERG current)” value stood at 76.0%.

Regarding `Cn1c(=O)c(C(C)(C)C)nc2ccc(-c3ccc(OC(F)(F)F)cc3)cc21` [3-tert-butyl-1-methyl-7-[4-(trifluoromethoxy)phenyl] quinoxalin-2(1H)-one], in data set [1], the inhibition at 10 µM was 44.6%.

In the case of `Cc1nc2cc(-c3ccc(F)c(F)c3)ccc2n(C)c1=O` [6-(3,4-difluorophenyl)-1,3-dimethylquinoxalin-2(1H)-one], the inhibition at 10 µM in data set [1] worked out at 14.3%.

Regarding `Cn1c(=O)cnc2ccc(-c3ccc(F)c(F)c3)cc21` [7-(3,4-difluorophenyl)-1-methylquinoxalin-2(1H)-one], in data set [1], the inhibition at 10 µM is 17.5%.

`CC(C)(C)c1nc2ccc(-c3cccc(OC(F)(F)F)c3)cc2n(CCNC(=O)CO)c1=O` [N-(2-{3-tert-butyl-2-oxo-7-[3-(trifiuoromethoxy)phenyl]quinoxalin-1(2H)-yl}ethyl)-2-hydroxyacetamide]: the inhibition at 10 µM in data set [1] was 58.1%.

`CCOC(=O)c1nc2ccc(-c3cccc(OC(F)(F)F)c3)cc2n(C)c1=O` [ethyl 4-methyl-3-oxo-6-[3-(trifluoromethoxy)phenyl]-3,4-dihydroquinoxaline-2-carboxylate]: the inhibition at 10 µM in data set [1] is 54.3%.
